# Read-outs that look alike come from different tables or passages of the source.
# Assays:
# Assay type in all cases: binding
# various enzymes [1] = molecular target: various enzymes (Homo sapiens, UniProt Q59H18); conditions: compound 1 uM
# Method: (§1) Ambit profiling was conducted in accordance with the manufacturer's instructions.
# various enzymes [2] = molecular target: various enzymes (Homo sapiens, UniProt Q8NFD2); conditions: compound 1 uM
# Method: as §1
# various enzymes [3] = molecular target: various enzymes (Homo sapiens, UniProt Q9Y2U5); conditions: compound 1 uM
# Method: as §1
# various enzymes [4] = molecular target: various enzymes (Homo sapiens, UniProt Q13882); conditions: compound 1 uM
# Chain of various enzymes (Homo sapiens, UniProt Q13882) (Q13882 whole entry): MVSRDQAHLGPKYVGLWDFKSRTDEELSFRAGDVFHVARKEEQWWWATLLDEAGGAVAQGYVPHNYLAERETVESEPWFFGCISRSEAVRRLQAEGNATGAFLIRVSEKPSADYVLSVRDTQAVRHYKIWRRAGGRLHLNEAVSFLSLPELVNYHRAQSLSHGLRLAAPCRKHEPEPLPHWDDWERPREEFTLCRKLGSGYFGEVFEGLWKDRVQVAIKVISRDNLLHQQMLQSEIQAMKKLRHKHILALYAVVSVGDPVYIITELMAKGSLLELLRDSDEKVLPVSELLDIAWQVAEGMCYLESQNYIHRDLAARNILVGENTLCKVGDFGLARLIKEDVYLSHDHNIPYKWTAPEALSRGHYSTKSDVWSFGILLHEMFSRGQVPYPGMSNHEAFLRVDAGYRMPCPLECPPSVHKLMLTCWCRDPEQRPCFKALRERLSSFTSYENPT
# Method: as §1
# various enzymes [5] = molecular target: various enzymes (Homo sapiens, UniProt P42336, E542K)
# Method: as §1
# various enzymes [6] = molecular target: various enzymes (Homo sapiens, UniProt P42681); conditions: compound 1 uM
# Chain of various enzymes (Homo sapiens, UniProt P42681) (P42681 whole entry): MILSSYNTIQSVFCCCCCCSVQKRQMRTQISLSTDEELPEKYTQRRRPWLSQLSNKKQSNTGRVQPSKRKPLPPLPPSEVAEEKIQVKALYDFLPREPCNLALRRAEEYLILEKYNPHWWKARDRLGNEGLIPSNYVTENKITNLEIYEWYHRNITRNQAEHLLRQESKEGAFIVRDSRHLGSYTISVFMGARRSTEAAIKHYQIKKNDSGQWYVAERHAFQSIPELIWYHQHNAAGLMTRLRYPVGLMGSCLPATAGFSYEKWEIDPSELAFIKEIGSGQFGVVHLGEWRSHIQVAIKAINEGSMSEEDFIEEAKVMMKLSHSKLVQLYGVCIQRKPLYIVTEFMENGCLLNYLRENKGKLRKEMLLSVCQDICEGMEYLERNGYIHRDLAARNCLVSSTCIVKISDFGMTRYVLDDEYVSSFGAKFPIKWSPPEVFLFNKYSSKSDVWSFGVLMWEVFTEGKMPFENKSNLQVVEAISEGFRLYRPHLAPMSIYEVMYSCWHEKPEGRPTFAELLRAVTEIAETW
# Method: as §1
# various enzymes [7] = molecular target: various enzymes (Homo sapiens, UniProt P49760); conditions: compound 1 uM
# Method: as §1
# various enzymes [8] = molecular target: various enzymes (Homo sapiens, UniProt Q15759); conditions: compound 1 uM
# Method: as §1
# various enzymes [9] = molecular target: various enzymes (Homo sapiens, UniProt P10721, D816V)
# Method: as §1
# various enzymes [10] = molecular target: various enzymes (Homo sapiens, UniProt Q8TD19); conditions: compound 1 uM
# Method: as §1
# various enzymes [11] = molecular target: various enzymes (Homo sapiens, UniProt P35968); conditions: compound 1 uM
# Method: as §1
# various enzymes [12] = molecular target: various enzymes (Homo sapiens, UniProt Q9UF33); conditions: compound 1 uM
# Method: as §1
# various enzymes [13] = molecular target: various enzymes (Homo sapiens, UniProt Q00537); conditions: compound 1 uM
# Method: as §1
# various enzymes [14] = molecular target: various enzymes (Homo sapiens, UniProt Q9UQM7); conditions: compound 1 uM
# Chain of various enzymes (Homo sapiens, UniProt Q9UQM7) (Q9UQM7 whole entry): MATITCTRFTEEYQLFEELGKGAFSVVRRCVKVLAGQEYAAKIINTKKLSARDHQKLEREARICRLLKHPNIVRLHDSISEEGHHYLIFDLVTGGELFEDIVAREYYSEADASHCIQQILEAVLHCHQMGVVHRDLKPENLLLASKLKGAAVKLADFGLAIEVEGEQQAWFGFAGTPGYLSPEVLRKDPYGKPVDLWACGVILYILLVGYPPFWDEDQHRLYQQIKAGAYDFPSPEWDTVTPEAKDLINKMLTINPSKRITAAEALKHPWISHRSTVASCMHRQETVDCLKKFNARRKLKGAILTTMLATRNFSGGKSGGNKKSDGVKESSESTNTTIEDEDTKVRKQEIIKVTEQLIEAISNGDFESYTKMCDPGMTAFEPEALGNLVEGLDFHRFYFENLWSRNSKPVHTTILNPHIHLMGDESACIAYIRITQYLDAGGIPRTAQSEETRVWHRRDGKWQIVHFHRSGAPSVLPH
# Method: as §1
# various enzymes [15] = molecular target: various enzymes (Homo sapiens, UniProt Q52WX2); conditions: compound 1 uM
# Method: as §1
# various enzymes [16] = molecular target: various enzymes (Homo sapiens, UniProt O95835); conditions: compound 1 uM
# Method: as §1
# various enzymes [17] = molecular target: various enzymes (Homo sapiens, UniProt Q8NEB9); conditions: compound 1 uM
# Method: as §1
# various enzymes [18] = molecular target: various enzymes (Homo sapiens, UniProt P00533, L861Q)
# Method: as §1
# various enzymes [19] = molecular target: various enzymes (Homo sapiens, UniProt O15146); conditions: compound 1 uM
# Method: as §1
# various enzymes [20] = molecular target: various enzymes (Homo sapiens, UniProt Q6P2M8); conditions: compound 1 uM
# Chain of various enzymes (Homo sapiens, UniProt Q6P2M8) (Q6P2M8 whole entry): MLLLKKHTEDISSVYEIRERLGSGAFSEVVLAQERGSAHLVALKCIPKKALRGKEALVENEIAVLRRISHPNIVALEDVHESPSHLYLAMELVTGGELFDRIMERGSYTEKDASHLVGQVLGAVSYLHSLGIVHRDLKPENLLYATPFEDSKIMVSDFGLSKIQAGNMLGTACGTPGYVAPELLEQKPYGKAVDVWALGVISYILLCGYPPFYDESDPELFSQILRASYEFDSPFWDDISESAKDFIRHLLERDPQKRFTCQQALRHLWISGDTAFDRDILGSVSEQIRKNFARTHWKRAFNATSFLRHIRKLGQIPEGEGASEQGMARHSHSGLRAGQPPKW
# Method: as §1
# various enzymes [21] = molecular target: various enzymes (Homo sapiens, UniProt Q9BX84); conditions: compound 1 uM
# Method: as §1
# various enzymes [22] = molecular target: various enzymes (Homo sapiens, UniProt O00238); conditions: compound 1 uM
# Method: as §1
# various enzymes [23] = molecular target: various enzymes (Homo sapiens, UniProt P22607); conditions: compound 1 uM
# Method: as §1
# various enzymes [24] = molecular target: various enzymes (Homo sapiens, UniProt Q9NYL2); conditions: compound 1 uM
# Method: as §1
# various enzymes [25] = molecular target: various enzymes (Homo sapiens, UniProt Q9Y2H1); conditions: compound 1 uM
# Method: as §1
# various enzymes [26] = molecular target: various enzymes (Homo sapiens, UniProt P27037); conditions: compound 1 uM
# Method: as §1
# various enzymes [27] = molecular target: various enzymes (Homo sapiens, UniProt P42336, M1043I)
# Method: as §1
# various enzymes [28] = molecular target: various enzymes (Homo sapiens, UniProt Q06418); conditions: compound 1 uM
# Method: as §1
# various enzymes [29] = molecular target: various enzymes (Homo sapiens, UniProt P42336, I800L)
# Method: as §1
# various enzymes [30] = molecular target: various enzymes (Homo sapiens, UniProt Q9UM73); conditions: compound 1 uM
# Method: as §1
# various enzymes [31] = molecular target: various enzymes (Homo sapiens, UniProt P00533, L858R/T790M)
# Method: as §1
# various enzymes [32] = molecular target: various enzymes (Homo sapiens, UniProt P00533); conditions: compound 1 uM
# Method: as §1
# various enzymes [33] = molecular target: various enzymes (Homo sapiens, UniProt Q14004); conditions: compound 1 uM
# Chain of various enzymes (Homo sapiens, UniProt Q14004) (Q14004 whole entry): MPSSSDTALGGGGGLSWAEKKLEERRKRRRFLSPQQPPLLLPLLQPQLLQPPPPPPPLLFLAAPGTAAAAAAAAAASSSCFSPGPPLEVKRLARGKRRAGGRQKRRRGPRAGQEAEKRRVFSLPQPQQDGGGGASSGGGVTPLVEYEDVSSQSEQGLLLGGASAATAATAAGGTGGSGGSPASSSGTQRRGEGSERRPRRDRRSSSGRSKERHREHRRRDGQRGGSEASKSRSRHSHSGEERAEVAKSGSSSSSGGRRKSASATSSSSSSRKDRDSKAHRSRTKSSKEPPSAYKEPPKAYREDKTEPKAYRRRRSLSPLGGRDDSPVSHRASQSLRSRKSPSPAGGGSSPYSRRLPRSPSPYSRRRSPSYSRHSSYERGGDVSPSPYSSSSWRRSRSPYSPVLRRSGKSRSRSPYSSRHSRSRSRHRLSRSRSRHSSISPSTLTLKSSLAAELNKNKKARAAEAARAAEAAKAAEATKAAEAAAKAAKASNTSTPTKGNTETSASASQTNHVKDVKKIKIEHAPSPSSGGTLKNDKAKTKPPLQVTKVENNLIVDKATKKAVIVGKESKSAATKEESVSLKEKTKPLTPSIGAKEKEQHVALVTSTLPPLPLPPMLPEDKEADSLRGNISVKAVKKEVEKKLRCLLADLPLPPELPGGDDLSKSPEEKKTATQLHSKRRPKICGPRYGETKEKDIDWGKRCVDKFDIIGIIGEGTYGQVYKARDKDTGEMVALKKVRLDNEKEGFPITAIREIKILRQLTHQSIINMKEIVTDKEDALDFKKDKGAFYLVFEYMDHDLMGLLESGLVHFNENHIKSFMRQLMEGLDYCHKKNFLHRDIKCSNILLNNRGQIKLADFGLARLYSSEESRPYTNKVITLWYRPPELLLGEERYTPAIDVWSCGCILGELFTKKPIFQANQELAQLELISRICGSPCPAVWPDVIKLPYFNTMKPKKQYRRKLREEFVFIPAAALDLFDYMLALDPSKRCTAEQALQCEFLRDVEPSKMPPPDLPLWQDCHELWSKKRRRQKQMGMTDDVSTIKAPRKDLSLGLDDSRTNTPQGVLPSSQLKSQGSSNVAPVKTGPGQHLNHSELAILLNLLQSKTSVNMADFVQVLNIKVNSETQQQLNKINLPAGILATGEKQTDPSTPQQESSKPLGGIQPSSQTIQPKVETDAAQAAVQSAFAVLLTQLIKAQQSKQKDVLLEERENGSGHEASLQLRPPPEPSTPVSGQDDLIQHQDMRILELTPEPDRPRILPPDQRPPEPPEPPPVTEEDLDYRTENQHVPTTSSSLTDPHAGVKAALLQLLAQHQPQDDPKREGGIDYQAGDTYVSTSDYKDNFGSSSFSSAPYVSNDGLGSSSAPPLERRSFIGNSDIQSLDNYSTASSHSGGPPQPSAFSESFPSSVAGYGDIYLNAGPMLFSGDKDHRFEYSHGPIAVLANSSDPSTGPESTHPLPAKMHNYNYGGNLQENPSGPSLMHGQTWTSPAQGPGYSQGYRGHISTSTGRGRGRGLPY
# Method: as §1
# various enzymes [34] = molecular target: various enzymes (Homo sapiens, UniProt Q9H2K8); conditions: compound 1 uM
# Method: as §1
# various enzymes [35] = molecular target: various enzymes (Homo sapiens, UniProt P07333); conditions: compound 1 uM
# Chain of various enzymes (Homo sapiens, UniProt P07333) (P07333 20-972): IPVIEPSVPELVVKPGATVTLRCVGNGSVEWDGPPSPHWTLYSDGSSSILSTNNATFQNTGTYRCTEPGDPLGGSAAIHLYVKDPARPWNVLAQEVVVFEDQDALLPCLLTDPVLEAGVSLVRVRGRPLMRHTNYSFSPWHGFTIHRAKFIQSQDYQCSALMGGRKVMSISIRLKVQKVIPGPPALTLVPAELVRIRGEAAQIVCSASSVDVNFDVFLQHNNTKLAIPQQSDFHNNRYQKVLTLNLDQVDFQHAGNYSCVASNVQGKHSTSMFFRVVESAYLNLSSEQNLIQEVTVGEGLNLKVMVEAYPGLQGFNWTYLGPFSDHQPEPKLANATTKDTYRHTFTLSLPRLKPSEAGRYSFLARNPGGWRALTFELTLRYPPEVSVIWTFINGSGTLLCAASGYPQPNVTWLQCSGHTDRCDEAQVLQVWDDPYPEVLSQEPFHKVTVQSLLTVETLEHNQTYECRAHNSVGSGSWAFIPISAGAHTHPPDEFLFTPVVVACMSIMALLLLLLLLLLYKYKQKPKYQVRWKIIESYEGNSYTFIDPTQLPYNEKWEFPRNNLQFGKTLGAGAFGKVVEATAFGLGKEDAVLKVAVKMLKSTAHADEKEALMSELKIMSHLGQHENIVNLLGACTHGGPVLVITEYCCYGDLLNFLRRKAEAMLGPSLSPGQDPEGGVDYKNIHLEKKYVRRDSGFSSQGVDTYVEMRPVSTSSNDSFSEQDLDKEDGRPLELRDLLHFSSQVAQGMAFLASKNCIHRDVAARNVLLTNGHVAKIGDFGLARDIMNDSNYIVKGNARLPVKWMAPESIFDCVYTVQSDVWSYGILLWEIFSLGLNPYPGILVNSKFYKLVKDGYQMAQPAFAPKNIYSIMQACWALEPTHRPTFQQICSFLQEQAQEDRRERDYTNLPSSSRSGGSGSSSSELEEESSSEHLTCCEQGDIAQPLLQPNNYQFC
# Method: as §1
# various enzymes [36] = molecular target: various enzymes (Homo sapiens, UniProt O95382); conditions: compound 1 uM
# Method: as §1
# various enzymes [37] = molecular target: various enzymes (Homo sapiens, UniProt Q15349); conditions: compound 1 uM
# Chain of various enzymes (Homo sapiens, UniProt Q15349) (Q15349 whole entry): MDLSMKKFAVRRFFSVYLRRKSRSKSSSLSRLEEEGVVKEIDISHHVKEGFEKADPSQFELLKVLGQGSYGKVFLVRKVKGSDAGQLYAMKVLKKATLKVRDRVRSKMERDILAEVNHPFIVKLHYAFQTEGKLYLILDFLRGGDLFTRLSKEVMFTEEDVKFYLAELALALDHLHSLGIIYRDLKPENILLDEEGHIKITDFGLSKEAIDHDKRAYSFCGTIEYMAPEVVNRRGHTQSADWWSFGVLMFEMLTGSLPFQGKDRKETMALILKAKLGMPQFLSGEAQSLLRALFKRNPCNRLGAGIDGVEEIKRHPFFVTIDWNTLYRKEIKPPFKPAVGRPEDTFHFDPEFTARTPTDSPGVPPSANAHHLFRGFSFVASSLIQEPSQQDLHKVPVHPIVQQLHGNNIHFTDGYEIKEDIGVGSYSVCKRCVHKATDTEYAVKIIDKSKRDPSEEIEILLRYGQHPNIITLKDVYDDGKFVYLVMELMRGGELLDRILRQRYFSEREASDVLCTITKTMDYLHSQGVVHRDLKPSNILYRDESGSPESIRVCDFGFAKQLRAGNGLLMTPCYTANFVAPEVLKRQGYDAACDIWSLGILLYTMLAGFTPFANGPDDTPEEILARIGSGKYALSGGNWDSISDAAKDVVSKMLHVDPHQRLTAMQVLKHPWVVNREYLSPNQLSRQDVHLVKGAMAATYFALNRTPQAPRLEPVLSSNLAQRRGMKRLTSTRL
# Method: as §1
# various enzymes [38] = molecular target: various enzymes (Homo sapiens, UniProt Q99755); conditions: compound 1 uM
# Method: as §1
# various enzymes [39] = molecular target: various enzymes (Homo sapiens, UniProt Q96GD4); conditions: compound 1 uM
# Method: as §1
# various enzymes [40] = molecular target: various enzymes (Homo sapiens, UniProt O60674); conditions: compound 1 uM
# Method: as §1
# various enzymes [41] = molecular target: various enzymes (Homo sapiens, UniProt P21860); conditions: compound 1 uM
# Method: as §1
# various enzymes [42] = molecular target: various enzymes (Homo sapiens, UniProt P04049); conditions: compound 1 uM
# Method: as §1
# various enzymes [43] = molecular target: various enzymes (Homo sapiens, UniProt Q15835); conditions: compound 1 uM
# Method: as §1
smiles,measurement,setting,value
"COc1c2c(nn1C)CN(C(C)C)C(=O)CCCn1cc(c(C(F)(F)F)n1)-c1c[nH]c3ncc-2cc13 [Compound 50, (Z)-5-isopropyl-35-methoxy-31-methyl-13-(trifluoromethyl)-11H,21H,31H-5-aza-2(3,5)-pyrrolo[2,3-b]pyridina-1(4,1),3(4,3)-dipyrazolacyclononaphan-6-one]",Ambit profiling: TNNI3K,various enzymes [1],72
same,Ambit profiling: ANKK1,various enzymes [2],94
same,Ambit profiling: MAP3K2,various enzymes [3],0.5
same,Ambit profiling: BRK,various enzymes [4],80
same,Ambit profiling: PIK3CA(E542K),various enzymes [5],85
same,Ambit profiling: TXK,various enzymes [6],3.2
same,Ambit profiling: CLK2,various enzymes [7],11
same,Ambit profiling: p38-beta,various enzymes [8],83
same,Ambit profiling: KIT(D816V),various enzymes [9],0.35
same,Ambit profiling: NEK9,various enzymes [10],82
same,Ambit profiling: VEGFR2,various enzymes [11],0.8
same,Ambit profiling: EPHA6,various enzymes [12],14
same,Ambit profiling: PCTK2,various enzymes [13],56
same,Ambit profiling: CAMK2A,various enzymes [14],12
same,Ambit profiling: SBK1,various enzymes [15],98
same,Ambit profiling: LATS1,various enzymes [16],72
same,Ambit profiling: VPS34,various enzymes [17],83
same,Ambit profiling: EGFR(L861Q),various enzymes [18],17
same,Ambit profiling: MUSK,various enzymes [19],90
same,Ambit profiling: CAMK1B,various enzymes [20],16
same,Ambit profiling: TRPM6,various enzymes [21],100
same,Ambit profiling: BMPR1B,various enzymes [22],5.1
same,Ambit profiling: FGFR3,various enzymes [23],7.6
same,Ambit profiling: ZAK,various enzymes [24],58
same,Ambit profiling: NDR2,various enzymes [25],78
same,Ambit profiling: ACVR2A,various enzymes [26],96
same,Ambit profiling: PIK3CA(M1043I),various enzymes [27],86
same,Ambit profiling: TYRO3,various enzymes [28],99
same,Ambit profiling: PIK3CA(I800L),various enzymes [29],86
same,Ambit profiling: ALK,various enzymes [30],21
same,"Ambit profiling: EGFR(L858R, T790M)",various enzymes [31],19
same,Ambit profiling: EGFR,various enzymes [32],27
same,Ambit profiling: CDC2L5,various enzymes [33],89
same,Ambit profiling: TAOK3,various enzymes [34],63
same,Ambit profiling: CSF1R,various enzymes [35],3.3
same,Ambit profiling: CSF1R-autoinhibited,various enzymes [35],27
same,Ambit profiling: ASK2,various enzymes [36],98
same,Ambit profiling: RSK3(Kin.Dom.1-N-terminal),various enzymes [37],4
same,Ambit profiling: RSK3(Kin.Dom.2-C-terminal),various enzymes [37],80
same,Ambit profiling: PIP5K1A,various enzymes [38],19
same,Ambit profiling: AURKB,various enzymes [39],18
same,Ambit profiling: JAK2(JH1domain-catalytic),various enzymes [40],29
same,Ambit profiling: ERBB3,various enzymes [41],100
same,Ambit profiling: RAF1,various enzymes [42],93
same,Ambit profiling: GRK1,various enzymes [43],44
"CC(C)N1Cc2nn(C)cc2-c2cnc3[nH]cc(c3c2)-c2cn(nc2C(F)(F)F)CCCC1=O [Compound 45, (Z)-5-isopropyl-31-methyl-13-(trifluoromethyl)-11H,21H,31H-5-aza-2(3,5)-pyrrolo[2,3-b]pyridina-1(4,1),3(4,3)-dipyrazolacyclononaphan-6-one]",Ambit profiling: TNNI3K,various enzymes [1],72
same,Ambit profiling: ANKK1,various enzymes [2],100
same,Ambit profiling: MAP3K2,various enzymes [3],0.45
same,Ambit profiling: BRK,various enzymes [4],100
same,Ambit profiling: PIK3CA(E542K),various enzymes [5]; compound 1 uM,98
same,Ambit profiling: TXK,various enzymes [6],15
same,Ambit profiling: CLK2,various enzymes [7],4.3
same,Ambit profiling: p38-beta,various enzymes [8],100
same,Ambit profiling: KIT(D816V),various enzymes [9]; compound 1 uM,4.2
same,Ambit profiling: NEK9,various enzymes [10],100
same,Ambit profiling: VEGFR2,various enzymes [11],2
same,Ambit profiling: EPHA6,various enzymes [12],18
same,Ambit profiling: PCTK2,various enzymes [13],19
same,Ambit profiling: CAMK2A,various enzymes [14],7.7
same,Ambit profiling: SBK1,various enzymes [15],100
same,Ambit profiling: LATS1,various enzymes [16],100
same,Ambit profiling: VPS34,various enzymes [17],100
same,Ambit profiling: EGFR(L861Q),various enzymes [18]; compound 1 uM,28
same,Ambit profiling: MUSK,various enzymes [19],89
same,Ambit profiling: CAMK1B,various enzymes [20],25
same,Ambit profiling: TRPM6,various enzymes [21],83
same,Ambit profiling: BMPR1B,various enzymes [22],6.8
same,Ambit profiling: FGFR3,various enzymes [23],5.4
same,Ambit profiling: ZAK,various enzymes [24],45
same,Ambit profiling: NDR2,various enzymes [25],92
same,Ambit profiling: ACVR2A,various enzymes [26],100
same,Ambit profiling: PIK3CA(M1043I),various enzymes [27]; compound 1 uM,81
same,Ambit profiling: TYRO3,various enzymes [28],87
same,Ambit profiling: PIK3CA(I800L),various enzymes [29]; compound 1 uM,87
same,Ambit profiling: ALK,various enzymes [30],18
same,"Ambit profiling: EGFR(L858R, T790M)",various enzymes [31]; compound 1 uM,27
same,Ambit profiling: EGFR,various enzymes [32],29
same,Ambit profiling: CDC2L5,various enzymes [33],99
same,Ambit profiling: TAOK3,various enzymes [34],22
same,Ambit profiling: CSF1R,various enzymes [35],8.4
same,Ambit profiling: CSF1R-autoinhibited,various enzymes [35],39
same,Ambit profiling: ASK2,various enzymes [36],54
same,Ambit profiling: RSK3(Kin.Dom.1-N-terminal),various enzymes [37],4.7
same,Ambit profiling: RSK3(Kin.Dom.2-C-terminal),various enzymes [37],96
same,Ambit profiling: PIP5K1A,various enzymes [38],27
same,Ambit profiling: AURKB,various enzymes [39],5.7
same,Ambit profiling: JAK2(JH1domain-catalytic),various enzymes [40],4.9
same,Ambit profiling: ERBB3,various enzymes [41],100
same,Ambit profiling: RAF1,various enzymes [42],100
same,Ambit profiling: GRK1,various enzymes [43],17
